Measurements: US9173869B2, “Mediators of hedgehog signaling pathways, compositions and uses related thereto” (CURIS, INC., priority 1999, dated 2015)

Key:
[1] = test system: Hedgehog pathway (Shh-induced Gli-transcription activity) in 10T1/2(s12) cells; test: Gli-Luc assay (high-throughput screening, Hedgehog-responsive luciferase reporter); assay type: cell-based; conditions: Gli-Luc response, OCT-SHH 0.3 μg/ml, about 24 h
Method: Compounds to be tested are dissolved in DMSO to a concentration of 10 mM, and stored at −20° C. To activate the Hedgehog pathway in the assay cells, an octylated (lipid-modified) form of the N-terminal fragment of the Sonic Hedgehog protein (OCT-SHH) is used. This N-terminal SHH fragment is produced bacterially. The octylation involves reaction of the N-terminal fragment, via its amino-terminal cysteine moiety, with octyl maleimide.
Compounds may be tested in the “Gli-Luc” assay below, using the cell line 10T(s12), wherein the cells contain a Hedgehog-responsive reporter construct utilizing Luciferase as the reporter gene. In this way, Hedgehog pathway signaling activity can be measured via the Gli-Luc response.
10t1/2(s12) cells are plated in a 96-well micro-titer plate (MTP) at 20,000 cells/well in full medium [DMEM with 10% FBS]. Then plates are placed in the incubator for incubation overnight (O/N), at 37° C. and 5% CO2. After 24 h, the medium is replaced with Luciferase-assay medium (DMEM with 0.5% FBS). Compounds are thawed and diluted in assay medium at 3:1000 (about 300-fold) resulting in a starting concentration of about 30 μM.
Subsequently, 150 μl of each 30 μM sample is added to the first wells (in triplicate). The MTP samples are then diluted at 3-fold dilutions to a total of seven wells, ultimately resulting in a regiment of seven dilutions in triplicate, for each compound. Next, the protein ligand OCT-SHH is diluted in Luciferase-assay medium and added to each well at a final concentration of 0.3 μg/ml. Plates are then returned to the incubator for further incubation O/N, at 37° C. and 5% CO2. After about 24 h, plates are removed from the incubator and the medium is aspirated/discarded. Wells are washed once with assay buffer [PBS+1 mM Mg^2+ and 1 mM Ca^2+]. Then 50 μl of assay buffer is added to each well. The Luciferase assay reagent is prepared as described by the vendor (LucLite kit from Packard), and 50 μl is added to each well. Plates are incubated at room temperature (RT) for about 30 minutes after which the signals are read, again at RT, on a Topcount (Packard).

[2] = test system: gli-1 mRNA in ptc-null cells; test: Ptc-null assay (RT-PCR / quantitative real-time PCR of gli-1 mRNA); assay type: cell-based, mouse; conditions: ptc-null cells cultured 3 days, compared with vehicle; for expression of gli-1: 1 μM of test compound
Method: Ptc-null cells were cultured for 3 days in the presence of vehicle; jervine, a known Patched pathway antagonist (i) used here as a positive control; or 1 μM of a test compound. Total ribonucleic acid (RNA) was isolated from the cells and used for reverse transcriptase-polymerase chain reaction (RT-PCR). […] The gli-1 and actin mRNA samples were then loaded on 1.5% agarose gel and were detected by staining with ethidium bromide. The same samples were analyzed by the quantitative real-time polymerase chain reaction method to quantify the levels of gli-1 mRNA.

murine BCC lesions = test: Cultured skin punches with BCC lesions from UV-irradiated Ptc-knockout heterozygote mouse (X-gal staining); assay type: cell-based
Method: Mouse 456 is a Ptc-knockout heterozygote that received UV irradiation for 6 months. The mouse developed many small BCC lesions, which were blue after X-gal staining. The mouse was sacrificed and the skin was excised with a 2 mm skin punch. Those skin punches were then cultured for 6 days. […] The effect was more obvious when 10 μM of 11 was added to the culture medium instead of 5 μM of 11.

[3] = test system: ptc-1 lacZ reporter gene expression in lung explants; test: E12.5 ptc-1 (d11) lacZ lung explant culture, lacZ staining; assay type: cell-based, mouse; conditions: lung explants grown 48 hrs, versus untreated control
Method: In yet another experiment, E12.5 old ptc-1 (d11) lacZ lungs were harvested and transgenic embryos identified by lacZ detection using tails. Lung explants were grown submerged in mouse explant medium (DMEM based, additives optimized for the culture of mouse lungs) for 48 hrs, fixed in lacZ fixative, rinsed and stained for lacZ O/N at 37° C. Control tissue was untreated, while test tissue was treated with 11. Results are depicted in FIG. 34: (A) Untreated control. Strong lacZ expression can be observed in distal and proximal mesenchyme.

Structure (SMILES) | IC50 [1] | also measured
COc1cccc(NC(=O)NCc2nc3ccccc3c(=O)n2-c2ccc(F)cc2)c1C [Compound 71] | < 10 µM | –
CCOOC(=O)c1cccc(NC(=O)N(C)C(C)c2nc3ccccc3c(=O)n2-c2ccc(F)cc2)c1 (stereo not drawn) [Compound 65] | < 10 µM | –
CC(c1nc2ccccc2c(=O)n1-c1ccc(F)cc1)N1CCN(C(=O)Nc2ccc(Cl)c(Cl)c2)CC1 (stereo not drawn) [Compound 43] | < 10 µM | –
CC(c1nc2ccccc2c(=O)n1-c1ccc(F)cc1)N(C)C(=O)Nc1ccc([N+](=O)[O-])c(Cl)c1 (stereo not drawn) [Compound 62] | < 1 µM | –
CC(c1nc2ccccc2c(=O)n1-c1ccc(F)cc1)N(C)C(=O)Nc1ccc(-c2ccccc2)cc1 (stereo not drawn) [Compound 56] | < 10 µM | –
CC(c1nc2ccccc2c(=O)n1-c1ccc(F)cc1)N(C)C(=O)Nc1ccc([N+](=O)[O-])cc1Cl (stereo not drawn) [Compound 64] | < 10 µM | –
CCCCCCCCC(=O)N(CCCCC)C(C)c1nc2ccccc2c(=O)n1-c1ccccc1 (stereo not drawn) [Compound 41] | < 10 µM | –
O=C(NCCCc1nc2ccccc2c(=O)n1-c1ccc(F)cc1)Nc1cccc(C(F)(F)F)c1 [Compound 74] | < 5 µM | –
CC(C)c1cccc(NC(=O)N(C)C(C)c2nc3ccccc3c(=O)n2-c2ccc(F)cc2)c1 (stereo not drawn) [Compound 57] | < 10 µM | –
CC(c1nc2ccccc2c(=O)n1-c1ccc(F)cc1)N(Cc1ccco1)C(=O)Nc1cccc(F)c1 (stereo not drawn) [Compound 31] | < 10 µM | –
CCCN(C(=O)Nc1cccc(OC)c1)C(C)c1nc2ccccc2c(=O)n1-c1ccc(F)cc1 (stereo not drawn) [Compound 38] | < 5 µM | –
CCCN(C(=O)Nc1cccc(C(F)(F)F)c1)C(C)c1nc2ccccc2c(=O)n1-c1ccc(F)cc1 (stereo not drawn) [Compound 36] | < 5 µM | –
CC(c1nc2ccccc2c(=O)n1-c1ccc(F)cc1)N(C)C(=O)Nc1ccc([N+](=O)[O-])c(C(F)(F)F)c1 (stereo not drawn) [Compound 32] | < 5 µM | –
CCOC(=O)c1ccccc1NC(=O)N(C)C(C)c1nc2ccccc2c(=O)n1-c1ccc(F)cc1 (stereo not drawn) [Compound 63] | < 10 µM | –
Cc1c(NC(=O)N(C)C(C)c2nc3ccccc3c(=O)n2-c2ccc(F)cc2)cccc1[N+](=O)[O-] (stereo not drawn) [Compound 59] | < 5 µM | –
CC(c1nc2ccccc2c(=O)n1-c1ccc(F)cc1)N(C)C(=O)Nc1cc(Cl)nc(Cl)c1 (stereo not drawn) [Compound 58] | < 5 µM | –
CC(c1nc2ccccc2c(=O)n1-c1ccc(F)cc1)N(C)C(=O)Nc1ccc(C(F)(F)F)cc1 (stereo not drawn) [Compound 54] | < 5 µM | –
CC(c1nc2ccccc2c(=O)n1-c1ccc(F)cc1)N(C)C(=O)Nc1ccc(Cl)cc1[N+](=O)[O-] (stereo not drawn) [Compound 66] | < 10 µM | –
CC(NC(=O)Nc1cccc(C(F)(F)F)c1)c1nc2ccccc2c(=O)n1-c1ccc(F)cc1 (stereo not drawn) [Compound 73] | < 5 µM | –
CC1=C2C(=O)[C@H]3[C@@H](CC=C4C[C@@H](O)CC[C@@]43C)[C@@H]2CC[C@]12O[C@@H]1C[C@H](C)CN[C@H]1[C@H]2C [jervine, reference compound] | – | expression of gli-1 mRNA ([2]; positive control): significantly decreased
CCC(c1nc2ccccc2c(=O)n1-c1ccc(C)cc1)N(CCc1ccccc1)C(=O)CCCCF (stereo not drawn) [Compound 39] | < 5 µM | –
O=C(Nc1cccc(C(F)(F)F)c1)NC(c1nc2ccccc2c(=O)n1-c1ccc(F)cc1)C1CC1 (stereo not drawn) [Compound 75] | < 5 µM | –
CCCCc1ccc(C(=O)N(Cc2ccccc2)C(CC)c2nc3ccccc3c(=O)n2-c2ccc(C)cc2)cc1 (stereo not drawn) [Compound 40] | < 10 µM | –

Now from value to compound, other results behind:

IC50 [1] | Structure (SMILES) | also measured
< 5 µM | CCCN(CCC(=O)NC1CCCc2ccccc21)C(=O)c1cc(OC)cc(OC)c1 (stereo not drawn) [Compound 47] | expression of gli-1 [2]: no significant decrease
< 5 µM | CC(c1nc2ccccc2c(=O)n1-c1ccc(F)cc1)N(C)C(=O)Nc1cccc(C(F)(F)F)c1 (stereo not drawn) [Compound 11, 2-{1′-[N-(3″-trifluoromethylphenylcarbamoyl)-N-methyl-amino]ethyl}-3-(4′″fluorophenyl)-quinazolin-4-one] | effect on BCC lesions at 10 μM instead of 5 μM (murine BCC lesions; 10 μM versus 5 μM in culture medium, 6 days): more obvious; number and size of BCC lesions (blue spots) (murine BCC lesions; skin punches of mouse 456 cultured for 6 days, compared to vehicle (DMSO), 5 or 10 μM): can decrease the number and size of BCC lesions; lacZ reporter gene expression [3]: significantly decreased reporter gene expression; expression of gli-1 [2]: no significant decrease
< 5 µM | CCCN(C(=O)Nc1cccc(Cl)c1)C(C)c1nc2ccccc2c(=O)n1-c1ccc(F)cc1 (stereo not drawn) [Compound 34] | –
< 5 µM | Cc1c(NC(=O)NCc2nc3ccccc3c(=O)n2-c2ccc(F)cc2)cccc1SC(F)(F)F [Compound 67] | –
< 1 µM | CC(c1nc2ccccc2c(=O)n1-c1ccc(F)cc1)N(C)C(=O)Nc1ccc(Cl)c(C(F)(F)F)c1 (stereo not drawn) [Compound 61] | –
< 1 µM | O=C(NCc1nc2ccccc2c(=O)n1-c1ccc(F)cc1)Nc1ccc(Cl)c(Cl)c1 [Compound 68] | –
< 5 µM | CCC(=O)N1CCN(C(CC)c2nc3ccccc3c(=O)n2-c2ccc(C)cc2)C(C)C1 (stereo not drawn) [Compound 42] | –
< 5 µM | CC(c1nc2ccccc2c(=O)n1-c1ccc(F)cc1)N(C)C(=O)Nc1cccc(C#N)c1 (stereo not drawn) [Compound 51] | –
< 0.5 µM | O=C(NCc1nc2ccccc2c(=O)n1-c1ccc(F)cc1)Nc1cc(Cl)nc(Cl)c1 [Compound 6, 1-(2,6-Dichloro-pyridin-4-yl)-3-[3-(4-fluoro-phenyl)-4-oxo-3,4-dihydro-quinazolin-2-ylmethyl]-urea] | –
< 5 µM | CC(c1nc2ccccc2c(=O)n1-c1ccc(F)cc1)N(C)C(=O)Nc1ccc(SC(F)(F)F)cc1 (stereo not drawn) [Compound 60] | –
< 0.5 µM | CCC(c1nc2ccccc2c(=O)[nH]1)N1CCN(C(=O)c2ccc(-c3ccccc3)cc2)C(C)C1 (stereo not drawn) [Compound 46] | –
< 1 µM | CCC(C)N(CCC(=O)NC1CCCc2ccccc21)C(=O)COc1ccc(Cl)cc1 (stereo not drawn) [Compound 49] | expression of gli-1 [2]: no significant decrease
< 1 µM | O=C(Cc1cccc(C(F)(F)F)c1)NCCc1nc2ccccc2c(=O)n1-c1ccc(F)cc1 [Compound 50] | –
< 5 µM | CCC(c1nc2ccccc2c(=O)[nH]1)N1CCN(C(=O)Nc2ccc(Cl)c(Cl)c2)C(C)C1 (stereo not drawn) [Compound 45] | –
< 0.1 µM | O=C(NCc1nc2ccccc2c(=O)n1-c1ccc(F)cc1)Nc1ccc(Cl)c(C(F)(F)F)c1 [Compound 5, 1-(4-Chloro-3-trifluoromethyl-phenyl)-3-[3-(4-fluoro-phenyl)-4-oxo-3,4-dihydro-quinazolin-2-ylmethyl]-urea] | –
< 5 µM | CC(c1nc2ccccc2c(=O)n1-c1ccc(F)cc1)N(C)C(=O)Nc1cccc(F)c1 (stereo not drawn) [Compound 55] | –
< 1 µM | CC(c1nc2ccccc2c(=O)n1-c1ccc(F)cc1)N(C)C(=O)Nc1ccc(Cl)c(Cl)c1 (stereo not drawn) [Compound 53] | –
< 1 µM | O=C(NCc1nc2ccccc2c(=O)n1-c1ccc(F)cc1)Nc1cccc(C(F)(F)F)c1 [Compound 44] | –
< 0.5 µM | CCC(C)N(CCC(=O)NC1CCCc2ccccc21)C(=O)c1cccc2ccccc12 (stereo not drawn) [Compound 48] | expression of gli-1 [2]: no significant decrease
< 0.5 µM | O=C(NCc1nc2ccccc2c(=O)n1-c1ccc(F)cc1)Nc1ccc(Cl)c([N+](=O)[O-])c1 [Compound 69] | –
< 1 µM | CC(c1nc2ccccc2c(=O)n1-c1ccc(F)cc1)N(C)C(=O)Nc1cccc(SC(F)(F)F)c1 (stereo not drawn) [Compound 52] | –
